# Patent US11597703B2, “Caspase inhibitors and methods of use thereof” (Histogen Inc., priority 2019, dated 2023)
# Key:
# IL-1β [1] = assay: Mouse in vivo model of peritoneal inflammation (LPS/ATP), IL-1β in peritoneal lavage fluid; set-up: species or system Mice; settings: mouse peritonitis, IP injection
# Description: Compounds of the present invention were tested in a mouse in vivo model of peritoneal inflammation (peritonitis). Mice were treated with intraperotonial injection of bacterial endotoxin, (LPS). After 1 hour, test compounds were administered by IP injection. After an additional hour, adenosine triphosphate (ATP) was administered by IP injection to further induce the production of the inflammatory cytokines, IL-1β and IL 18. After 0.5 hours, peritoneal lavage fluid was collected and analyzed for IL-1β and IL 18. An inhibitor of the NLRP 3 inflammasome, MCC950, was administered by IP injection and included as a reference test compound. […] IL18 levels were determined by a commercially available ELISA kit following the manufacture's instructions FIG. 3.
# IL-1β [2] = assay: Inhibition of LPS-stimulated IL-1β in THP-1 cells (ELISA); assay type: cell-based, human; settings: Homo sapiens, 10 micromolar, read-out: Percent Inhibition of IL1-β
# [3] = Rodent model of ulcerative colitis induced by TNBS; assay type: in vivo, Sprague-Dawley rats; settings: for colon histology: Edema, Submucosal, Mean / colon histology: Erosion/ Ulceration, Mean / colon histology: Hyperplasia, Epithelial, Mean / colon histology: Necrosis, Mucosal/ Gland Loss, Mean / colon histology: SUM Score, Mean / colon histology: Subacute Inflammation, Mucosal/ Submucosal, Mean / colon histology: Subacute Inflammation, Transmural/ Serosal, Mean: DAY 7
# Description: Compounds of the present invention were tested by oral administration in a rodent model of ulcerative colitis (UC). Ulcerative colitis was induced in Sprague-Dawley rats by instillation of 48 mg/kg […], (TNBS), through the rectum. Testing included 4 active treatment groups and one vehicle control group.
# Effect of TNBS-Induced UC in Vehicle Treated Control Group, (Group 1):
# Rats were administered of 0.5% vehicle carboxy methylcellulose, (CMC), twice daily starting 24 hours after the instillation of TNBS.
# At the termination of the study on DAY 7, the average colon weight in the diseased rats was 5.904±2.208 g, the average colon length was 11.0±1.4 cm and the average distal colon width was 3.1±1.0 cm. Severe adhesions involving multiple intestinal loops, severe stricture resulting in proximal colon distension, ulcers of 6.4±0.4 cm in length, and colonic wall thickness of 3.5±0.8 mm combined to yield an overall colonic score of 11.5±0.8 in the diseased rats. […] Subacute inflammation (sub/mucosal and transmural/serosal were graded separately) was characterized by infiltration and aggregation of neutrophils, eosinophils, lymphocytes, plasma cells, and macrophages. Mucosal necrosis was characterized by damage to, necrosis of, or complete loss of colonic glands. Erosions were characterized by coagulative necrosis or loss of surface epithelium superficial to the muscularis mucosae. Submucosal edema was characterized by expansion of the submucosa by clear space or pale eosinophilic fluid, variably accompanied by dilation of lymphatic vessels and similar edematous expansion of the lamina propria. Epithelial hyperplasia was characterized by elongation of colonic glands and increased numbers of epithelial mitotic figures.
# [4] = Group 3, 10 mg/kg/dose twice daily oral
# [5] = Group 4, 30 mg/kg/dose twice daily oral
# [6] = Group 5, 100 mg/kg/dose twice daily oral
# [7] = all dose groups (10, 30, 100 mg/kg/dose twice daily oral)
compound,measurement,setting,value
"C[C@H](NC(=O)C(=O)Nc1c(F)cccc1F)C(=O)N[C@@H](CCC(=O)O)C(=O)COc1c(F)c(F)cc(F)c1F [Example 6, (S)-4-((S)-2-(2-((2,6-Difluorophenyl)amino)-2-oxoacetamido)propanamido)-5-oxo-6-(2,3,5,6-tetrafluorophenoxy)hexanoic acid]",inhibition of the in vivo production of IL-1β,IL-1β [1],statistically significant inhibition
same,inhibition at 10 µM,IL-1β [2],> 90%
same,"body weights, onset of significant improvement",[3]; [4],significantly improved beginning on DAY 4
same,"colon histology: Edema, Submucosal, Mean",[3]; [4],3.2
same,"colon histology: Erosion/ Ulceration, Mean",[3]; [4],4.0
same,"colon histology: Hyperplasia, Epithelial, Mean",[3]; [4],3.4
same,"colon histology: Necrosis, Mucosal/ Gland Loss, Mean",[3]; [4],4.0
same,"colon histology: SUM Score, Mean",[3]; [4],19.3
same,"colon histology: Subacute Inflammation, Mucosal/ Submucosal, Mean",[3]; [4],4.3
same,"colon histology: Subacute Inflammation, Transmural/ Serosal, Mean",[3]; [4],3.9
same,"average animal weight, Mean","[3]; Group 3, 10 mpk twice daily oral, study day 0",241 g
same,"average animal weight, Mean","[3]; Group 3, 10 mpk twice daily oral, study day 1",236 g
same,"average animal weight, Mean","[3]; Group 3, 10 mpk twice daily oral, study day 2",223 g
same,"average animal weight, Mean","[3]; Group 3, 10 mpk twice daily oral, study day 3",218 g
same,"average animal weight, Mean","[3]; Group 3, 10 mpk twice daily oral, study day 4",218 g
same,"average animal weight, Mean","[3]; Group 3, 10 mpk twice daily oral, study day 5",222 g
same,"average animal weight, Mean","[3]; Group 3, 10 mpk twice daily oral, study day 6",227 g
same,"average animal weight, Mean","[3]; Group 3, 10 mpk twice daily oral, study day 7",228 g
same,"average animal weight, Mean","[3]; Group 3, 10 mpk twice daily oral, study day −1",256 g
same,"average animal weight, Mean","[3]; Group 3, 10 mpk twice daily oral, study day −5",222 g
same,"body weights, onset of significant improvement",[3]; [5],statistically significantly improved body weights starting on DAY 5
same,reduction in overall colonic score,[3]; [5],40%
same,"colon histology: Edema, Submucosal, Mean",[3]; [5],2.6
same,"colon histology: Erosion/ Ulceration, Mean",[3]; [5],3.4
same,"colon histology: Hyperplasia, Epithelial, Mean",[3]; [5],3.1
same,"colon histology: Necrosis, Mucosal/ Gland Loss, Mean",[3]; [5],3.4
same,"colon histology: SUM Score, Mean",[3]; [5],17.6
same,"colon histology: Subacute Inflammation, Mucosal/ Submucosal, Mean",[3]; [5],3.9
same,"colon histology: Subacute Inflammation, Transmural/ Serosal, Mean",[3]; [5],3.2
same,"average animal weight, Mean","[3]; Group 4, 30 mpk twice daily oral, study day 0",234 g
same,"average animal weight, Mean","[3]; Group 4, 30 mpk twice daily oral, study day 1",228 g
same,"average animal weight, Mean","[3]; Group 4, 30 mpk twice daily oral, study day 2",215 g
same,"average animal weight, Mean","[3]; Group 4, 30 mpk twice daily oral, study day 3",214 g
same,"average animal weight, Mean","[3]; Group 4, 30 mpk twice daily oral, study day 4",216 g
same,"average animal weight, Mean","[3]; Group 4, 30 mpk twice daily oral, study day 5",218 g
same,"average animal weight, Mean","[3]; Group 4, 30 mpk twice daily oral, study day 6",220 g
same,"average animal weight, Mean","[3]; Group 4, 30 mpk twice daily oral, study day 7",223 g
same,"average animal weight, Mean","[3]; Group 4, 30 mpk twice daily oral, study day −1",248 g
same,"average animal weight, Mean","[3]; Group 4, 30 mpk twice daily oral, study day −5",222 g
same,"body weights, onset of significant improvement",[3]; [6],statistically significantly improved body weights starting on DAY 5
same,"colon histology: Edema, Submucosal, Mean",[3]; [6],3.0
same,"colon histology: Erosion/ Ulceration, Mean",[3]; [6],3.6
same,"colon histology: Hyperplasia, Epithelial, Mean",[3]; [6],3.0
same,"colon histology: Necrosis, Mucosal/ Gland Loss, Mean",[3]; [6],3.6
same,"colon histology: SUM Score, Mean",[3]; [6],17.5
same,"colon histology: Subacute Inflammation, Mucosal/ Submucosal, Mean",[3]; [6],3.9
same,"colon histology: Subacute Inflammation, Transmural/ Serosal, Mean",[3]; [6],3.4
same,"average animal weight, Mean","[3]; Group 5, 100 mpk twice daily oral, study day 0",232 g
same,"average animal weight, Mean","[3]; Group 5, 100 mpk twice daily oral, study day 1",231 g
same,"average animal weight, Mean","[3]; Group 5, 100 mpk twice daily oral, study day 2",219 g
same,"average animal weight, Mean","[3]; Group 5, 100 mpk twice daily oral, study day 3",213 g
same,"average animal weight, Mean","[3]; Group 5, 100 mpk twice daily oral, study day 4",217 g
same,"average animal weight, Mean","[3]; Group 5, 100 mpk twice daily oral, study day 5",220 g
same,"average animal weight, Mean","[3]; Group 5, 100 mpk twice daily oral, study day 6",222 g
same,"average animal weight, Mean","[3]; Group 5, 100 mpk twice daily oral, study day 7",225 g
same,"average animal weight, Mean","[3]; Group 5, 100 mpk twice daily oral, study day −1",246 g
same,"average animal weight, Mean","[3]; Group 5, 100 mpk twice daily oral, study day −5",222 g
same,SUM scores of colon histological parameters,[3]; [7],statistically significant improvement
same,overall colonic score,[3]; [7],statistically significant improvement
